From patent publication US20210228560A1 (Centogene IP GmbH, priority 2011, published 2021)

Tests used:
[1] = target: acid α-glucosidase mutants (Homo sapiens, UniProt P10253, Y575S); format: cell-based; conditions: NB-DNJ and Ambroxol combination; FIG. 7A
Procedure: A bacterial clone containing the full length cDNA of […] (IRATp970C0971D, aligned to accession no. NM_000152.3, GeneBank) was received form ImaGenes GmbH, Berlin, Germany. Amplification was performed with the primers 5′-TAGGAGCTGTCCAGGCCATC-3′ (SEQ ID NO:3) and 5′-GAGAGACTAACACACTCCGC-3′ (SEQ ID NO:4). The PCR was carried out using iProof DNA Polymerase (BioRad). The cDNA was subcloned into pCRII TA TOPO vector (Invitrogen). Prior to ligation, the cDNA insert was incubated with Taq polymerase (Qiagen) to add a poly (A) overhang at the 3′-end for TA-cloning. For expression, the GAA cDNA was ligated into target vector pcDNA3.1/V5-His6 (Invitrogen) using sticky end ligation utilizing unique restriction sites (HindIII, XhoI) offered by both vectors multiple cloning sites.
Sample preparation was carried out analogously to the α-galactosidase A recordings. As substrate, a 1.3 mg 4-Methylumbelliferyl-α-D-Glukopyranoside/ml solution (in sodium acetate buffer, pH 4.0) was used and 5 μg sample/reaction were added. The reaction was incubated for 60 minutes at 37° C. and stopped with 1M Glycine-NaOH, pH 10.5.

[2] = tested on: GLA mutants (alpha-galactosidase A)
[3] = target: GLA mutants (alpha-galactosidase A) (Homo sapiens, UniProt P06280, M51I); conditions: GLA mutant M51I; Ambroxol in combination with DGJ
Sequence of GLA mutants (alpha-galactosidase A) (Homo sapiens, UniProt P06280, M51I) (P06280 32-429 M51I): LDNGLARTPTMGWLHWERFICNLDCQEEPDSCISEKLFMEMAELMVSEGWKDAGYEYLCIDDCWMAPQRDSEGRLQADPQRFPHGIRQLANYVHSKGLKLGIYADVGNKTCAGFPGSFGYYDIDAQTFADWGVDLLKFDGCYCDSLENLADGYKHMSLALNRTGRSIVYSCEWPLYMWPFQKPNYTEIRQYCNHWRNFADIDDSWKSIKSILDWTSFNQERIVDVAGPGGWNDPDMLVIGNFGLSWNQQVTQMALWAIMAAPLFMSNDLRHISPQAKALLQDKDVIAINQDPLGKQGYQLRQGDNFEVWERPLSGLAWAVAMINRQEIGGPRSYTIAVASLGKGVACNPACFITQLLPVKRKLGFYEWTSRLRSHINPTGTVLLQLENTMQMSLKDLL

[4] = target: GLA mutants (alpha-galactosidase A) (Homo sapiens, UniProt P06280, A156V); conditions: GLA mutant A156V; Ambroxol in combination with DGJ
Sequence of GLA mutants (alpha-galactosidase A) (Homo sapiens, UniProt P06280, A156V) (P06280 32-429 A156V): as the sequence (P06280 32-429 M51I) above, with I20M, A125V counted along it

[5] = target: GLA mutants (alpha-galactosidase A) (Homo sapiens, UniProt P06280, G328A); conditions: GLA mutant G328A; Ambroxol in combination with DGJ
Sequence of GLA mutants (alpha-galactosidase A) (Homo sapiens, UniProt P06280, G328A) (P06280 32-429 G328A): as the sequence (P06280 32-429 M51I) above, with I20M, G297A counted along it

[6] = target: GLA mutants (alpha-galactosidase A) (Homo sapiens, UniProt P06280, H225R); conditions: GLA mutant H225R; Ambroxol in combination with DGJ
Sequence of GLA mutants (alpha-galactosidase A) (Homo sapiens, UniProt P06280, H225R) (P06280 32-429 H225R): as the sequence (P06280 32-429 M51I) above, with I20M, H194R counted along it

[7] = target: GLA mutants (alpha-galactosidase A) (Homo sapiens, UniProt P06280, E59K); conditions: GLA mutant E59K; Ambroxol in combination with DGJ
Sequence of GLA mutants (alpha-galactosidase A) (Homo sapiens, UniProt P06280, E59K) (P06280 32-429 E59K): as the sequence (P06280 32-429 M51I) above, with I20M, E28K counted along it

[8] = target: GLA mutants (alpha-galactosidase A) (Homo sapiens, UniProt P06280, R301Q); conditions: GLA mutant R301Q; Ambroxol in combination with DGJ
Sequence of GLA mutants (alpha-galactosidase A) (Homo sapiens, UniProt P06280, R301Q) (P06280 32-429 R301Q): as the sequence (P06280 32-429 M51I) above, with I20M, R270Q counted along it

[9] = target: GLA mutants (alpha-galactosidase A) (Homo sapiens, UniProt P06280, R363H); conditions: GLA mutant R363H; Ambroxol in combination with DGJ
Sequence of GLA mutants (alpha-galactosidase A) (Homo sapiens, UniProt P06280, R363H) (P06280 32-429 R363H): as the sequence (P06280 32-429 M51I) above, with I20M, R332H counted along it

[10] = target: GLA mutants (alpha-galactosidase A) (Homo sapiens, UniProt P06280, T410I); conditions: GLA mutant T410I; Ambroxol in combination with DGJ
Sequence of GLA mutants (alpha-galactosidase A) (Homo sapiens, UniProt P06280, T410I) (P06280 32-429 T410I): as the sequence (P06280 32-429 M51I) above, with I20M, T379I counted along it

[11] = target: GLA mutants (alpha-galactosidase A) (Homo sapiens, UniProt P06280, R356W); conditions: GLA mutant R356W; Ambroxol in combination with DGJ
Sequence of GLA mutants (alpha-galactosidase A) (Homo sapiens, UniProt P06280, R356W) (P06280 32-429 R356W): as the sequence (P06280 32-429 M51I) above, with I20M, R325W counted along it

[12] = target: T1, GLA[R301G] (Homo sapiens, UniProt P06280, R301G); format: cell-based; conditions: 20 μM DGJ and 40 μM Ambroxol; untreated = 1.0; FIG. 5B
T1 sequence (P06280 32-429 R301G): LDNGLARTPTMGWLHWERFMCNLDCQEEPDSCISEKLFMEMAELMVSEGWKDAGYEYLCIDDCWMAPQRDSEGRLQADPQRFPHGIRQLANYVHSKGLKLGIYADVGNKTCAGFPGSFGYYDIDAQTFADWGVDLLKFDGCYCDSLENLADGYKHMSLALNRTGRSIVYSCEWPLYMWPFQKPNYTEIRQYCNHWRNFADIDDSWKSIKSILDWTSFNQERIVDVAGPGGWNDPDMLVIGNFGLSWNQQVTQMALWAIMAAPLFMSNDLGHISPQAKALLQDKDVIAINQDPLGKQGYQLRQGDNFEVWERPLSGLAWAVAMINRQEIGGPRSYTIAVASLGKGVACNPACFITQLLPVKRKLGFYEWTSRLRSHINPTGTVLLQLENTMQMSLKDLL

Sequence of acid α-glucosidase mutants (P10253 70-952 Y575S): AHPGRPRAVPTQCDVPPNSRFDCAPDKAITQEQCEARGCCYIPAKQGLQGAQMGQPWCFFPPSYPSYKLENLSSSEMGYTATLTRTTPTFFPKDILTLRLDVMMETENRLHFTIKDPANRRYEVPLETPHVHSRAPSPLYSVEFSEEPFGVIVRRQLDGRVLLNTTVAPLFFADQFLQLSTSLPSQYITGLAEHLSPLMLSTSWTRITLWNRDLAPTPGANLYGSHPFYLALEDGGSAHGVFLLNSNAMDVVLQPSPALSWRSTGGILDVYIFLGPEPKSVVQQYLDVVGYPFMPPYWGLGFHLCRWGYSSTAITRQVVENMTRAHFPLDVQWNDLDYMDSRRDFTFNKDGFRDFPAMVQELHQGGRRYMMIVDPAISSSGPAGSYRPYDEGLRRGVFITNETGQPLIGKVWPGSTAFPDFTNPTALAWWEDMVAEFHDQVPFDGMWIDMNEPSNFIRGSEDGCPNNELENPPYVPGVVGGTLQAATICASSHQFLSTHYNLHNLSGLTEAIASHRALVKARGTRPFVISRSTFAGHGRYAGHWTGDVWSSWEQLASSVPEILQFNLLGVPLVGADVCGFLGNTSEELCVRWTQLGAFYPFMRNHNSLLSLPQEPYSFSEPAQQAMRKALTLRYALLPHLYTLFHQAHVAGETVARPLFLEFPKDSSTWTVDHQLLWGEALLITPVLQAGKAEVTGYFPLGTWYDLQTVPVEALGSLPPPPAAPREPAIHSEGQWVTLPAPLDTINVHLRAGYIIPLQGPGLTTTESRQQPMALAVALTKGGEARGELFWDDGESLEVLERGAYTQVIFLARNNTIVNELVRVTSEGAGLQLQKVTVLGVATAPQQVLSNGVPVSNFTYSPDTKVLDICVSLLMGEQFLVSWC

For `Nc1c(Br)cc(Br)cc1CN[C@H]1CC[C@H](O)CC1` [Ambroxol, 2-amino-3,5-dibromo-N-[trans-4-hydroxycyclohexyl]benzylamine], the “responsiveness of mutation Y575S” value [1] was “clear tendency to be responsive only towards the combination”, the “effect on enzyme activity of the mutant forms of GLA” value ([2]; 40 μM Ambroxol alone, FIG. 1) was “no effect” and the “activity of mutant alpha-galactosidase A, Ambroxol together with Galactose” value ([2]; compared to Galactose only, 100 mM galactose and 40 μM Ambroxol (FIG. 3B)) was “increased”. For the same molecule, the “significance of protein activity, Ambroxol and DGJ compared to DGJ alone” value ([2]; mutations E59K, A156V and G328A, FIG. 6) was “significant”, the “additive Ambroxol effect demonstrated” value [3] was “** (**p≤0.05)” and the “additive Ambroxol effect demonstrated” value [4] was “**** (****p≤0.005)”. For the same molecule, the “additive Ambroxol effect demonstrated” value [5] was “* (*p≤0.1)”, the “additive Ambroxol effect demonstrated” value [6] was “** (**p≤0.05)” and the “additive Ambroxol effect demonstrated” value [7] was “**** (****p≤0.005)”. For the same molecule, the “additive Ambroxol effect demonstrated” value [8] was “**** (****p≤0.005)”, the “additive Ambroxol effect demonstrated” value [9] was “*** (***p≤0.01)” and the “additive Ambroxol effect demonstrated” value [10] was “* (*p≤0.1)”. For the same molecule, the “additive Ambroxol effect demonstrated” value [11] was “**** (****p≤0.005)” and the “increase of GLA[R301G] activity” value [12] was 4.1 fold.
